Experimental data reported in US20100298141A1, “SUBSTITUTED PYRIDINE N-OXIDE HERBICIDES” (E. I. DU PONT DE NEMOURS AND COMPANY, priority 2007, published 2010).

Experiments:
[1] = tested on: morningglory; experiment: Test C pre-/postemergence test; assay type: in vivo, Ipomoea coccinea
Excerpt: Seeds of plant species selected from blackgrass (Alopecurus myosuroides), downy brome (Bromus tectorum), green foxtail (Setaria viridis), Italian ryegrass (Lolium multiflorum), wheat (Triticum aestivum), wild oat (Avena fatua), catchweed bedstraw (Galium aparine), Russian thistle (Salsola kali), […] (Cynodon dactylon), Surinam grass (Brachiaria decumbens), cocklebur (Xanthium strumarium), corn (Zea mays), crabgrass (Digitaria sanguinalis), woolly cupgrass (Eriochloa villosa), giant foxtail (Setaria faberii), Goosegrass (Eleusin indica), johnsongrass (Sorghum halepense), kochia (Kochia scoparia), lambsquarters (Chenopodium album), morningglory (Ipomoea coccinea), eastern black nightshade (Solanum ptycanthum), yellow nutsedge (Cyperus esculentus), pigweed (Amaranthus retroflexus), common ragweed (Ambrosia elation), soybean (Glycine max), common (oilseed) sunflower (Helianthus annuus), and velvetleaf (Abutilon theophrasti) were planted and treated preemergence with test chemicals formulated in a non-phytotoxic solvent mixture which included a surfactant. At the same time, plants selected from these crop and weed species and also winter barley (Hordeum vulgare), canarygrass (Phalaris minor), and chickweed (Stellaria media) were treated with postemergence applications of some of the test chemicals formulated in the same manner. Plants ranged in height from 2 to 18 cm (1- to 4-leaf stage) for postemergence treatments. […] At time of treatment, test pots were flooded to 3 cm above the soil surface, treated by application of test compounds directly to the paddy water, and then maintained at that water depth for the duration of the test. […] A dash (-) response means no test result.

[2] = tested on: rice; experiment: Test C flooded paddy test; assay type: in vivo, Oryza sativa; conditions: Flood
Procedure, shortened: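 Visual injury ratings against untreated controls, taken 13 to 15 days after compound was added to paddy water standing 3 cm above the soil.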

[3] = 62 g ai/ha, Preemergence, scale 0 to 100
[4] = Preemergence, 31 g ai/ha, scale 0 to 100 (0 no effect, 100 complete control)
[5] = 31 g ai/ha, scale 0 to 100 (0 no effect, 100 complete control)
[6] = 62 g ai/ha, scale 0 to 100, 0 no effect, 100 complete control, 13 to 15 days
[7] = 125 g ai/ha, scale 0 to 100, 0 no effect, 100 complete control, 13 to 15 days
[8] = 250 g ai/ha, scale 0 to 100 (0 no effect, 100 complete control)
[9] = 125 g ai/ha, preemergence, scale 0 (no effect) to 100 (complete control)
[10] = preemergence, 250 g ai/ha, scale 0 (no effect) to 100 (complete control)
[11] = 62 g ai/ha, scale 0 to 100 (0 no effect, 100 complete control)
[12] = 250 g ai/ha, scale 0 to 100, 0 no effect, 100 complete control, 13 to 15 days
[13] = Postemergence, 62 g ai/ha, scale 0 to 100, 0 no effect, 100 complete control
[14] = Postemergence, 125 g ai/ha, scale 0 to 100, 0 no effect, 100 complete control
[15] = Postemergence, 250 g ai/ha, scale 0 to 100, 0 no effect, 100 complete control
[16] = 31 g ai/ha, Preemergence, scale 0 to 100
[17] = preemergence, 125 g ai/ha, scale 0 (no effect) to 100 (complete control)

| SMILES | Morningglory plant response rating [1, 3] | Plant response rating, Morningglory [1, 4] | Plant response rating, Rice [2, 5] | Plant response rating, Rice [2, 6] | Plant response rating, Rice [2, 7] | Plant response rating, Rice [2, 8] | Morningglory plant response rating [1, 9] | Morningglory plant response rating [1, 10] | Plant response rating, Rice [2, 11] | Plant response rating, Rice [2, 12] | Plant response rating (0 to 100), Morningglory ([1]; Postemergence, 31 g ai/ha) | Plant response rating, Morningglory [1, 13] | Plant response rating, Morningglory [1, 14] | Plant response rating, Morningglory [1, 15] | Morningglory plant response rating [1, 16] | Plant response rating (0 to 100), Morningglory ([1]; Preemergence, 250 g ai/ha) | Morningglory plant response rating [1, 17] | Morningglory plant response rating ([1]; 62 g ai/ha, preemergence, scale 0 (no effect) to 100 (complete control)) |
| --- | --- | --- | --- | --- | --- | --- | --- | --- | --- | --- | --- | --- | --- | --- | --- | --- | --- | --- |
| Cn1nc(C(F)(F)F)c(C[S+]([O-])c2ccc(Cl)c[n+]2[O-])c1Cl (racemic) [Compound 17] | 85 | 0 | 0 | 70 | 75 | 80 | – | – | – | – | – | – | – | – | – | – | – | – |
| CCc1cc[n+]([O-])c([S+]([O-])Cc2c(C(F)(F)F)nn(C)c2OCC(F)(F)F)c1 (centres unmarked) [Compound 59] | 100 | 50 | – | – | – | – | 100 | 100 | 10 | 70 | – | – | – | – | – | – | – | – |
| C#CCOc1c(CS(=O)(=O)c2cccc[n+]2[O-])c(C(F)(F)F)nn1C [Compound 103] | 55 | 0 | – | – | – | – | 80 | 98 | 0 | 0 | – | – | – | – | – | – | – | – |
| CCn1nc(C(F)(F)F)c(C(C)S(=O)(=O)c2cccc[n+]2[O-])c1OCC(F)(F)F (centres unmarked) [Compound 69] | – | – | – | – | – | – | – | – | 40 | 70 | 0 | 0 | 0 | 0 | – | – | – | – |
| CCc1cc[n+]([O-])c([S+]([O-])Cc2c(C(F)(F)F)nn(C)c2OC(F)F)c1 (centres unmarked) [Compound 101] | 60 | 20 | – | – | – | – | 100 | 100 | 0 | 75 | – | – | – | – | – | – | – | – |
| Cc1cc[n+]([O-])c(S(=O)(=O)Cc2c(C(F)(F)F)nn(C)c2OC(C)C(F)(F)F)c1 (centres unmarked) [Compound 96] | 70 | 0 | – | – | – | – | 95 | 100 | 0 | 20 | – | – | – | – | – | – | – | – |
| Cn1nc(C(F)(F)F)c(C[S+]([O-])c2cc(F)cc[n+]2[O-])c1Cl (racemic) [Compound 42] | 50 | 0 | 0 | 15 | 25 | – | 50 | 90 | – | 70 | – | – | – | – | – | – | – | – |
| C#CCOc1c(C[S+]([O-])c2cccc[n+]2[O-])c(C(F)(F)F)nn1C (centres unmarked) [Compound 76] | 20 | 0 | – | – | – | – | 100 | 100 | 0 | 30 | – | – | – | – | – | – | – | – |
| Cc1cc[n+]([O-])c(S(=O)(=O)Cc2c(C(F)(F)C(F)(F)F)nn(C)c2OCC(F)(F)F)c1 [Compound 99] | 100 | 65 | – | – | – | – | 100 | 100 | 0 | 45 | – | – | – | – | – | – | – | – |
| Cc1cc[n+]([O-])c(S(=O)(=O)Cc2c(C(F)(F)F)nn(C)c2OCC(F)F)c1 [Compound 94] | 90 | 30 | – | – | – | – | 98 | 100 | 0 | 20 | – | – | – | – | – | – | – | – |
| Cn1nc(C(F)(F)F)c(C[S+]([O-])c2cccc[n+]2[O-])c1OCC(F)(F)C(F)(F)F (centres unmarked) [Compound 78] | – | – | – | – | – | – | – | – | 10 | 70 | 0 | 0 | 0 | 0 | – | – | – | – |
| Cn1nc(C(F)(F)F)c(CS(=O)(=O)c2cccc[n+]2[O-])c1Cl [Compound 9] | – | – | 10 | 40 | 70 | 70 | – | – | – | – | – | – | – | – | 0 | 100 | 90 | – |
| Cn1nc(C(F)(F)F)c(C[S+]([O-])c2ccc(F)c[n+]2[O-])c1Cl (centres unmarked) [Compound 54] | 100 | 100 | 0 | 0 | 15 | – | 100 | 100 | – | 40 | – | – | – | – | – | – | – | – |
| Cn1nc(C(F)(F)F)c(C(Cl)S(=O)(=O)c2cccc[n+]2[O-])c1OCC(F)(F)F (racemic) [Compound 36] | 10 | 0 | 0 | 25 | 60 | – | 60 | 75 | – | 75 | – | – | – | – | – | – | – | – |
| CC(c1c(C(F)(F)F)nn(CC(F)(F)F)c1Cl)[S+]([O-])c1cccc[n+]1[O-] (centres unmarked) [Compound 46] | 100 | 100 | – | 10 | – | – | 100 | 100 | – | 55 | – | – | – | – | – | – | – | – |
| CC(c1c(C(F)(F)F)nn(C)c1Cl)S(=O)(=O)c1ccc(Cl)c[n+]1[O-] (racemic) [Compound 40] | – | – | 0 | 15 | 60 | – | – | – | – | 65 | 0 | 0 | 0 | 0 | – | – | – | – |
| Cn1nc(C(F)(F)F)c(CS(=O)(=O)c2cccc[n+]2[O-])c1OCC(F)F [Compound 81] | 0 | 0 | – | – | – | – | 85 | 85 | 0 | 0 | – | – | – | – | – | – | – | – |
| Cn1nc(C(F)(F)F)c(C(Cl)S(=O)(=O)c2cccc[n+]2[O-])c1Cl (centres unmarked) [Compound 12] | – | – | 60 | 60 | 70 | 80 | – | – | – | – | – | – | – | – | 0 | 80 | 5 | 0 |
